{"source": "paper PMC2110886", "about": "(PLoS ONE, 2007)", "key": {"[1]": {"design": "method as in Symmetrel package insert", "conditions": "ref Symmetrel package insert, cited from earlier work"}, "[2]": {"assay": "Steady-state plasma pharmacokinetics, open-label randomized three-way crossover study, drugs alone or in combination", "conditions": "for Tmax / half-life / AUC(0-t) / Cmax: human, in vivo; for effect of amantadine coadministration on PK (in words): oseltamivir 75 mg BID + amantadine 100 mg BID"}, "cytochrome P450 isoforms": {"test_system": "cytochrome P450 isoforms", "design": "method as in Tamiflu package insert", "conditions": "ref Tamiflu package insert; cited from earlier work"}, "[3]": {"conditions": "cited from earlier work; for mean Cmax: twice daily oral dosing with 75 mg oseltamivir capsule; for mean Cmax / AUC0-12: ref Oseltamivir package insert; for AUC0-12: values reported earlier, 75 mg oseltamivir twice daily"}, "[4]": {"test_system": "recombinant amantadine sensitive A/Vietnam/1203/04 (H5N1) virus", "conditions": "mice, lethal challenge, equivalent human therapeutic doses, ref Ilyushina, in press; cited from earlier work"}, "[5]": {"test_system": "all strains of influenza A and B tested, including H5N1", "conditions": "no reference given; cited from earlier work"}, "[6]": {"assay": "Safety and tolerability (adverse events) in the crossover study", "conditions": "eight adverse events in total during the trial; 17 subjects"}, "[7]": {"conditions": "oseltamivir carboxylate, combination therapy with amantadine 100 mg BID"}, "[8]": {"conditions": "oseltamivir carboxylate, oseltamivir monotherapy 75 mg BID"}, "[9]": {"conditions": "under fasted conditions, ref Tamiflu package insert"}, "[10]": {"conditions": "under fed conditions, ref Tamiflu package insert"}, "[11]": {"conditions": "oseltamivir, combination therapy with amantadine 100 mg BID"}, "[12]": {"conditions": "oseltamivir, oseltamivir monotherapy 75 mg BID"}}, "note": "Entries after “also recorded” stand apart in the source; their conditions may differ. Read-outs that look alike come from different tables or passages of the source.", "data": [{"smiles": "CC(=O)NC12CC3CC(CC(C3)C1)C2", "note": "[Acetylamantadine, acetylamantadine]", "values": [{"measurement": "plasma acetylamantadine as share of the concurrent amantadine plasma concentration", "setting": "[1]; 5 of 12 healthy volunteers, 200 mg dose of amantadine", "result": "up to 80%"}, {"measurement": "N-acetylated metabolite in human urine, share of the administered dose", "setting": "[1]", "result": "5-15%"}, {"measurement": "detection of acetylamantadine in plasma", "setting": "[1]; remaining seven of 12 volunteers", "result": "not detected"}, {"measurement": "detection of acetylamantadine in plasma", "setting": "[2]; current study, seventeen volunteers, LLOQ approximately 5.00 ng/mL", "result": "not detected"}]}, {"smiles": "CCC(CC)O[C@@H]1C=C(C(=O)O)C[C@H](N)[C@H]1NC(C)=O", "note": "[Oseltamivir carboxylate, oseltamivir carboxylate]", "values": [{"measurement": "substrate for, or inhibitor of, cytochrome P450 isoforms", "setting": "cytochrome P450 isoforms", "result": "Neither oseltamivir nor oseltamivir carboxylate is a substrate for, or inhibitor of, cytochrome P450 isoforms; also recorded: Neither oseltamivir nor oseltamivir carboxylate is a substrate for"}, {"measurement": "Tmax", "setting": "[2]", "result": 3.07, "unit": "h"}, {"measurement": "half-life", "setting": "[2]", "result": 6.15, "unit": "h"}, {"measurement": "AUC(0-t)", "setting": "[2]; 75 mg", "result": 3430, "unit": "ng·h/mL"}, {"measurement": "Cmax", "setting": "[2]; 75 mg", "result": 407, "unit": "ng/mL"}, {"measurement": "Tmax", "setting": "[2]; 75 mg", "result": 3.22, "unit": "h"}, {"measurement": "half-life", "setting": "[2]; 75 mg", "result": 6.09, "unit": "h"}, {"measurement": "effect of amantadine coadministration on PK (in words)", "setting": "[2]", "result": "did not meaningfully affect"}, {"measurement": "apparent clearance, geometric mean", "setting": "[2]; [7]", "result": 22.3, "unit": "L/h"}, {"measurement": "apparent distribution volume, geometric mean", "setting": "[2]; [7]", "result": 197, "unit": "L"}, {"measurement": "apparent clearance, geometric mean", "setting": "[2]; [8]", "result": 21.9, "unit": "L/h"}, {"measurement": "apparent distribution volume, geometric mean", "setting": "[2]; [8]", "result": 192, "unit": "L"}, {"measurement": "share of an oral dose reaching the systemic circulation as oseltamivir carboxylate", "setting": "[3]; oral oseltamivir phosphate, ref Tamiflu package insert", "result": "At least 75%"}, {"measurement": "mean Cmax", "setting": "[3]", "result": 348, "unit": "ng/mL"}, {"measurement": "area under the plasma concentration time curve", "setting": "[3]; [9]", "result": 6218, "unit": "ng·h/mL"}, {"measurement": "peak plasma concentration", "setting": "[3]; [9]", "result": 551, "unit": "ng/mL"}, {"measurement": "area under the plasma concentration time curve", "setting": "[3]; [10]", "result": 6069, "unit": "ng·h/mL"}, {"measurement": "peak plasma concentration", "setting": "[3]; [10]", "result": 441, "unit": "ng/mL"}, {"measurement": "AUC0-12", "setting": "[3]", "result": 2719, "unit": "ng·h/mL"}]}, {"smiles": "CCOC(=O)C1=C[C@@H](OC(CC)CC)[C@H](NC(C)=O)[C@@H](N)C1", "note": "[Oseltamivir, oseltamivir, reference compound]", "values": [{"measurement": "animals protected from mortality", "setting": "[4]", "result": 20, "unit": "%"}, {"measurement": "substrate for, or inhibitor of, cytochrome P450 isoforms", "setting": "cytochrome P450 isoforms", "result": "Neither oseltamivir nor oseltamivir carboxylate is a substrate for, or inhibitor of, cytochrome P450 isoforms; also recorded: Neither oseltamivir nor oseltamivir carboxylate is a substrate for"}, {"measurement": "effectiveness (in words)", "setting": "[5]", "result": "effective against all strains of influenza A and B tested, including H5N1"}, {"measurement": "Tmax", "setting": "[2]", "result": 0.85, "unit": "h"}, {"measurement": "half-life", "setting": "[2]", "result": 1.83, "unit": "h"}, {"measurement": "AUC(0-t)", "setting": "[2]; 75 mg", "result": 161, "unit": "ng·h/mL"}, {"measurement": "Cmax", "setting": "[2]; 75 mg", "result": 60.2, "unit": "ng/mL"}, {"measurement": "Tmax", "setting": "[2]; 75 mg", "result": 0.76, "unit": "h"}, {"measurement": "half-life", "setting": "[2]; 75 mg", "result": 1.85, "unit": "h"}, {"measurement": "effect of amantadine coadministration on PK (in words)", "setting": "[2]", "result": "did not meaningfully affect"}, {"measurement": "apparent clearance, geometric mean", "setting": "[2]; [11]", "result": 505, "unit": "L/h"}, {"measurement": "apparent distribution volume, geometric mean", "setting": "[2]; [11]", "result": 1329, "unit": "L"}, {"measurement": "apparent clearance, geometric mean", "setting": "[2]; [12]", "result": 465, "unit": "L/h"}, {"measurement": "apparent distribution volume, geometric mean", "setting": "[2]; [12]", "result": 1245, "unit": "L"}, {"measurement": "number of adverse events reported, all mild", "setting": "[6]", "result": "three"}, {"measurement": "exposure to oseltamivir as share of the total exposure", "setting": "[3]; after oral dosing, ref Tamiflu package insert", "result": "less than 5%"}, {"measurement": "share of absorbed oseltamivir eliminated by conversion to oseltamivir carboxylate", "setting": "[3]; ref Tamiflu package insert", "result": "> 90", "unit": "%"}, {"measurement": "mean Cmax", "setting": "[3]", "result": 65.2, "unit": "ng/mL"}, {"measurement": "AUC0-12", "setting": "[3]", "result": 112, "unit": "ng·h/mL"}]}]}
